17 compounds from PubChem BioAssay AID330 (DTP/NCI, 2004) can be followed below.

This test concerns P388 leukemia ip, CD2F1 mice, survival T/C. The test is described as follows: NCI In Vivo Anticancer Drug Screen. Data for tumor model P388 Leukemia (intraperitoneal) in CD2F1 (CDF1) mice. The settings on record: endpoint: median survival time, higher = longer survival. In outline:
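Mice carrying the transplanted tumor received test compound or vehicle. Survival was recorded in each group, and the value is the treated-group measurement divided by that of the vehicle-treated control group.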

Where [1] appears, read: dose: 50.0 mg/kg/injection, schedule: Q01DX005 (ip), vehicle: saline with Tween-80.
The mark [2] stands for this setting: dose: 100.0 mg/kg/injection, schedule: Q01DX005 (ip), vehicle: saline with Tween-80.
The mark [3] stands for this setting: dose: 200.0 mg/kg/injection, schedule: Q01DX005 (ip), vehicle: saline with Tween-80.
[4] abbreviates: dose: 50.0 mg/kg/injection, schedule: Q01DX009 (ip), vehicle: saline with Tween-80.
The mark [5] stands for this setting: dose: 100.0 mg/kg/injection, schedule: Q01DX009 (ip), vehicle: saline with Tween-80.

Each structure is given as a SMILES string. Several values for one entry are separate records, joined by “and”; a condition that tells them apart may be missing. Equal entries are not always repeated. Inconclusive results and toxic doses are left out.

On to `C1=CC2OC1c1cc3c(cc12)[C@@H]1C=C[C@@H]3O1`, for which the T/C under setting [1] was 96 % of control, the T/C under setting [2] was 105 % of control and the T/C under setting [3] is 91 % of control.
For `O=C1NC(=O)c2ccc3c4ccc5c6c(ccc(c7ccc1c2c73)c46)c(=O)n1c2ccccc2nc51`, the T/C was 94 % of control (dose: 90.0 mg/kg/injection, schedule: Q01DX001 (ip), vehicle: Klucel (hydroxypropylcellulose) (HPC)); 94 % of control (dose: 180.0 mg/kg/injection, schedule: Q01DX001 (ip), vehicle: Klucel (hydroxypropylcellulose) (HPC)); 92 % of control (dose: 360.0 mg/kg/injection, schedule: Q01DX001 (ip), vehicle: Klucel (hydroxypropylcellulose) (HPC)).
For the compound `CC(C)(C)N(C(=O)OCC1c2ccccc2-c2ccccc21)C(CO)C(=O)O` (stereo not given), the T/C reads like this: (dose: 50.0 mg/kg/injection, schedule: Q01DX005 (ip), vehicle: Klucel (hydroxypropylcellulose) (HPC)) 100 % of control; (dose: 100.0 mg/kg/injection, schedule: Q01DX005 (ip), vehicle: Klucel (hydroxypropylcellulose) (HPC)) 107 % of control.
Consider `C/C(=N\NC(=S)Nc1cccc2cccc(S(=O)(=O)O)c12)c1ccccn1`, for which the T/C runs as follows: under setting [1], 102 % of control; under setting [2], 100 % of control; under setting [3], 112 % of control.
In the case of `C=C1SC(=Nc2c(C)cc(C)cc2C)N(C(=O)c2sc3ccccc3c2Cl)C12CCCCC2`, the T/C is 96 % of control (dose: 50.0 mg/kg/injection, schedule: Q01DX009 (ip), vehicle: suspension in saline); 103 % of control (dose: 100.0 mg/kg/injection, schedule: Q01DX009 (ip), vehicle: suspension in saline); 91 % of control (dose: 200.0 mg/kg/injection, schedule: Q01DX009 (ip), vehicle: suspension in saline).
Take `CCCCN(CCCC)CCNc1ccc(C)c2sc3ccccc3c(=O)c12`: the T/C (dose: 12.5 mg/kg/injection, schedule: Q01DX009 (ip), vehicle: saline) was 100 % of control; the T/C (dose: 25.0 mg/kg/injection, schedule: Q01DX009 (ip), vehicle: saline) is 102 % of control; the T/C (dose: 50.0 mg/kg/injection, schedule: Q01DX009 (ip), vehicle: saline) is 102 % of control; the T/C (dose: 100.0 mg/kg/injection, schedule: Q01DX009 (ip), vehicle: saline) was 100 % of control.
As for `COC(=O)c1c(-c2ccc(OC)c(OC)c2)c(C=O)n(C)c1C`, the T/C by setting is: (dose: 100.0 mg/kg/injection, schedule: Q04DX002 (ip), vehicle: saline with Tween-80) 99 % of control; (dose: 200.0 mg/kg/injection, schedule: Q04DX002 (ip), vehicle: saline with Tween-80) 91 % of control; (dose: 400.0 mg/kg/injection, schedule: Q04DX002 (ip), vehicle: saline with Tween-80) 90 % of control.
In the case of `CCC[CH2][Sn]([CH2]CCC)([CH2]CCN(C)C)[CH2]CCN(C)C`, the T/C under setting [4] was 97 % of control and the T/C under setting [5] was 104 % of control.
Turning to `CC1=C(C#N)C(=O)N(C)C(=O)C1(Cl)Cl`, the T/C is 98 % of control (dose: 100.0 mg/kg/injection, schedule: Q04DX002 (ip), vehicle: Klucel (hydroxypropylcellulose) (HPC)) and 98 % of control (dose: 200.0 mg/kg/injection, schedule: Q04DX002 (ip), vehicle: Klucel (hydroxypropylcellulose) (HPC)).
`O=C(CC1(O)C(=O)Nc2ccccc21)c1ccc([N+](=O)[O-])cc1` (stereo not given): the T/C was 102 % of control (dose: 60.0 mg/kg/injection, schedule: Q01DX005 (ip), vehicle: saline with Tween-80); 95 % of control (dose: 120.0 mg/kg/injection, schedule: Q01DX005 (ip), vehicle: saline with Tween-80); 100 % of control (dose: 240.0 mg/kg/injection, schedule: Q01DX005 (ip), vehicle: saline with Tween-80).
For the compound `Cc1ccc(C)c(Nc2ccccc2[N+](=O)[O-])c1`, the T/C was 103 % of control under setting [4]; 108 % of control under setting [5]; 100 % of control (dose: 200.0 mg/kg/injection, schedule: Q01DX009 (ip), vehicle: saline with Tween-80); 112 % of control (dose: 400.0 mg/kg/injection, schedule: Q01DX009 (ip), vehicle: saline with Tween-80).
With `COc1ccc2c(c1OC)CC(=O)N1CCc3cc4c(cc3C(=O)C21)OCO4` (stereo not given), the T/C is, setting by setting: (dose: 2.5 mg/kg/injection, schedule: Q01DX005 (ip), vehicle: saline + Tween-80 + alcohol) 104 % of control; (dose: 5.0 mg/kg/injection, schedule: Q01DX005 (ip), vehicle: saline + Tween-80 + alcohol) 101 % of control; (dose: 10.0 mg/kg/injection, schedule: Q01DX005 (ip), vehicle: saline + Tween-80 + alcohol) 100 % of control; (dose: 20.0 mg/kg/injection, schedule: Q01DX005 (ip), vehicle: saline + Tween-80 + alcohol) 107 % of control.
Take `CSC(=Nc1nc2ccc([N+](=O)[O-])cc2s1)SC`: the T/C is 101 % of control (dose: 6.25 mg/kg/injection, schedule: Q01DX009 (ip), vehicle: Klucel (hydroxypropylcellulose) (HPC)); 103 % of control (dose: 12.5 mg/kg/injection, schedule: Q01DX009 (ip), vehicle: Klucel (hydroxypropylcellulose) (HPC)); 103 % of control (dose: 25.0 mg/kg/injection, schedule: Q01DX009 (ip), vehicle: Klucel (hydroxypropylcellulose) (HPC)).
For the compound `CNc1ccccc1C(=O)N/N=C/C=C/c1ccccc1`, the T/C runs as follows: (dose: 12.5 mg/kg/injection, schedule: Q01DX009 (ip), vehicle: saline with Tween-80) 102 % of control; (dose: 25.0 mg/kg/injection, schedule: Q01DX009 (ip), vehicle: saline with Tween-80) 105 % of control; under setting [4], 104 % of control; under setting [5], 118 % of control.
In the case of `O=S(=O)(F)c1ncc2[nH]cnc2n1`, the T/C by setting is: (dose: 12.5 mg/kg/injection, schedule: Q01DX005 (ip), vehicle: saline with Tween-80) 109 % of control; (dose: 25.0 mg/kg/injection, schedule: Q01DX005 (ip), vehicle: saline with Tween-80) 114 % of control; under setting [1], 106 % of control and 111 % of control; under setting [2], 108 % of control.
Consider `COc1cccc2c1C(=O)c1c(O)c3c(c(O)c1C2=O)C[C@@](O)(/C=N\O)C[C@@H]3OC1CC(N)C(O)C(C)O1` (stereo not given in full), for which the T/C was 109 % of control (dose: 3.13 mg/kg/injection, schedule: Q04DX003 (ip), vehicle: water); 118 % of control (dose: 6.25 mg/kg/injection, schedule: Q04DX003 (ip), vehicle: water); 116 % of control (dose: 12.5 mg/kg/injection, schedule: Q04DX003 (ip), vehicle: water); 111 % of control (dose: 25.0 mg/kg/injection, schedule: Q04DX003 (ip), vehicle: water); 163 % of control (dose: 50.0 mg/kg/injection, schedule: Q04DX003 (ip), vehicle: water).
For `CSC1=C(C#N)C(=O)N=S(C)(C)=N1`, the T/C was 108 % of control under setting [1], 110 % of control under setting [2] and 100 % of control under setting [3].
